# Laboratory results: ChEMBL document CHEMBL1153065, “Synthesis, radiolabeling and preliminary in vivo evaluation of [18F]FE-PE2I, a new probe for the dopamine transporter” (Bioorg Med Chem Lett, 2009)
# pKi: −log10 of the molar value.
# Legend:
# [1] = biological target: Sodium-dependent dopamine transporter (Rattus norvegicus, UniProt P23977); assay: Displacement of [125I]PE2I from rat DAT
# [2] = Ratio of drug uptake in cerebellum to putamen in cynomolgus monkey by GBR-12909 displacement assay; set-up: species or system Macaca fascicularis; settings: in vivo
# Plasma = assay: Metabolic stability in cynomolgus monkey venous plasma assessed as compound recovery by radio-HPLC; assay type: ADME, cell-free, Macaca fascicularis
# [3] = Ratio of drug uptake in cerebellum to putamen in cynomolgus monkey at 59 MBq after 105 mins; assay type: ADME, Macaca fascicularis; settings: in vivo, 1.75 h
# [4] = Ratio of drug uptake in cerebellum to caudate in cynomolgus monkey at 59 MBq after 105 mins; assay type: ADME, Macaca fascicularis; settings: in vivo, 1.75 h
# Brain = assay: Drug uptake in cynomolgus monkey brain at 59 MBq after 13 mins; assay type: ADME, tissue-based, Macaca fascicularis; settings: in vivo
# [5] = Ratio of drug uptake in cerebellum to caudate in cynomolgus monkey by GBR-12909 displacement assay; set-up: species or system Macaca fascicularis; settings: in vivo
# Sequence of Sodium-dependent dopamine transporter (P23977 whole entry): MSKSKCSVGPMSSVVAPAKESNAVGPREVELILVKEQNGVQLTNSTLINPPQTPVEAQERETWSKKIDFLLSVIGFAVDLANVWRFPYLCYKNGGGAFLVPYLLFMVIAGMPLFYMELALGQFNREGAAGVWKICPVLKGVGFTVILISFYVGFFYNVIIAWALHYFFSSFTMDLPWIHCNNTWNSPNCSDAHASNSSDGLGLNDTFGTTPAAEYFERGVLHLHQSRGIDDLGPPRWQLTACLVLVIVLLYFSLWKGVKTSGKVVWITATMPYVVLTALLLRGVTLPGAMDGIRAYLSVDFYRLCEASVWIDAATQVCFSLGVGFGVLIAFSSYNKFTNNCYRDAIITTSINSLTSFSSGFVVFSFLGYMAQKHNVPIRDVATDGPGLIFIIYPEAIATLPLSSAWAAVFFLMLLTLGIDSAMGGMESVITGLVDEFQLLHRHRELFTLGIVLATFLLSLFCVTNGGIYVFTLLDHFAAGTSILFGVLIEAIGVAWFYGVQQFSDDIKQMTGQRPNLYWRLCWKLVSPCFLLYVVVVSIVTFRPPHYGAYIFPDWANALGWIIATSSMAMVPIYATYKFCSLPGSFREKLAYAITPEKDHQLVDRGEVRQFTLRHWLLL
Compound,pKi [1],Ratio [2],Stability (Plasma) [%],Ratio [3],Ratio [4],SUV (Brain) [%],Ratio [5]
COC(=O)[C@H]1[C@@H](c2ccc(C)cc2)C[C@@H]2CC[C@H]1N2C/C=C/I,7.80,,,,,,
Cc1ccc([C@H]2C[C@@H]3CC[C@H]([C@H]2C(=O)OCC[18F])N3C/C=C/I)cc1,,1.3,91,7.9,7.5,540,1.4
Cc1ccc([C@H]2C[C@@H]3CC[C@H]([C@H]2C(=O)OCCF)N3C/C=C/I)cc1,7.92,,,,,,
